Data as given in patent publication US12171755B2, “PAPD5 inhibitors and methods of use thereof” (Children's Medical Center Corporation, priority 2017, dated 2024).

Assays:
[1] = test system: TERC 3′ end processing in HEK 293 with stable shRNA-mediated knockdown of PARN; assay: TERC 3′ end processing (3′ RACE) in PARN-deficient HEK 293 cells; format: cell-based; conditions: PARN-deficient human cells (HEK 293, PARN shRNA knockdown), treated for 7 days; 10 µM and 100 μM; listed as entry 1 in table 1
Description: The expected amplicons representing mature TERC versus extended forms are indicated (arrows). […] HEK 293 with stable shRNA-mediated knockdown of PARN were treated for 7 days with the Table 5, entry 1 compound.

PAPD5 [2] = molecular target: T1, PAPD5 (Homo sapiens, UniProt Q8NDF8); assay: High-throughput luminescence (KinaseGlo) RNA polyadenylation assay, ATP utilization by recombinant PAPD5; format: biochemical
T1 construct: made in house
Summary of the method: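 Values are ratios of inhibitor to DMSO luminescence, so larger numbers mean less ATP consumed. Screening was run in duplicate with a 2 h room-temperature reaction of recombinant PAPD5, ATP and oligo RNA substrate plus compound. Residual ATP was detected after a 10 min KinaseGlo step.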

PARN exonuclease = molecular target: T2, PARN exonuclease (Homo sapiens, UniProt O95453); assay: Counter-screen for inhibition of PARN exonuclease; format: biochemical
T2 sequence (O95453 1-639): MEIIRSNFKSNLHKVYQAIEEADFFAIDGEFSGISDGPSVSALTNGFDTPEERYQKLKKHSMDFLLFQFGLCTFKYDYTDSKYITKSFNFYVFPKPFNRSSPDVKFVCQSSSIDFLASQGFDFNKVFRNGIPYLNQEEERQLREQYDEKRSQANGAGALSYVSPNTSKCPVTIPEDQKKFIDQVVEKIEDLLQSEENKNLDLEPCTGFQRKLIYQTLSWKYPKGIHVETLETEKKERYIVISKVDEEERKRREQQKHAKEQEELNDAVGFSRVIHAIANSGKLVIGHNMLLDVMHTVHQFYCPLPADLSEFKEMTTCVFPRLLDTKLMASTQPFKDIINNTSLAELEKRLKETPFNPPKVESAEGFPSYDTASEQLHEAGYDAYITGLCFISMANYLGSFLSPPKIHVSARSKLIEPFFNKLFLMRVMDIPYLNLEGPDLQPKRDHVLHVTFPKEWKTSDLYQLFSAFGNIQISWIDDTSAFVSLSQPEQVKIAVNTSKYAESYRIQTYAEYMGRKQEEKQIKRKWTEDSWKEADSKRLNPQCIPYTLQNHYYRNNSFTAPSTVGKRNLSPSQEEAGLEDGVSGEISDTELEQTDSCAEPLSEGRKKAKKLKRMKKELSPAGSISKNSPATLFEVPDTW
Text: Although PARN and PAPD5 have opposing functions in TERC maturation and stabilization, PARN and PAPD5 are structurally related, and so molecules that inhibit one enzyme may inhibit the other.

PAPD5 [3] = molecular target: T1, PAPD5; assay: PAPD5 oligonucleotide extension assay (gel), compound dose response vs ATP; format: biochemical; conditions: recombinant PAPD5 in vitro
Description: Candidate inhibitors are assayed at a range of concentrations in functional assays entailing extension of fluorescently-labelled RNA oligonucleotide substrates in the presence of PAPD5, followed by gel electrophoresis. […] In FIG. 5, a 20-mer 5′-fluorescently labelled RNA oligonucleotide was incubated with recombinant WT or mutant PAPD5 for 1 hour in the presence of varying concentrations of ATP, and products were visualized by polyacrylamide gel electrophoresis. It is expected that wildtype (WT) PAPD5 with PAPD5 inhibitors can have similar results. In fact, 4 compounds were selected to test the validation assay. The results were shown in FIG. 8, and were consistent with the expected results.
Each compound tested in the assay was tested at 0 μM, 5 μM, 10 μM, 50 μM, and 100 μM. At each concentration, each compound was tested at 0 μM, 10 μM, 100 μM, and 1000 μM concentration of ATP.

T1 sequence (Q8NDF8 68-698 isoform Q8NDF8-5): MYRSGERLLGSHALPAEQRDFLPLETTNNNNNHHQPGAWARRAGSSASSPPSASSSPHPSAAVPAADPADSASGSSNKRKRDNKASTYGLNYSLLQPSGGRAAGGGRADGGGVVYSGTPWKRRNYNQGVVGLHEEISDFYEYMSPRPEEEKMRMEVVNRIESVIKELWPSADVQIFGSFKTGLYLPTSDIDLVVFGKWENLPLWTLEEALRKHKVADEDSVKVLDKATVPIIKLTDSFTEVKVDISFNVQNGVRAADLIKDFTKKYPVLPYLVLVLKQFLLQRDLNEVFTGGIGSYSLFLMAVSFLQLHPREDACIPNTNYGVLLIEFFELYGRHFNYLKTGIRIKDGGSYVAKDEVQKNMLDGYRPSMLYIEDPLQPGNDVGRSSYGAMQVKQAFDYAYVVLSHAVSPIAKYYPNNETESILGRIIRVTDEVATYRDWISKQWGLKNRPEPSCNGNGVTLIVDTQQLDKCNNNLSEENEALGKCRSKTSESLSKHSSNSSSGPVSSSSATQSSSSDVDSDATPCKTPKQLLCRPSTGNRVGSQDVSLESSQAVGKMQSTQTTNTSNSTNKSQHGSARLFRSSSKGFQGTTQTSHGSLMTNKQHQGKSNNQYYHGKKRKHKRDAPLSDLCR

Row | SMILES | inhibition of PARN exonuclease (in words) (PARN exonuclease) | inhibition of PAPD5 (in words) (PAPD5 [3]) | other results
1 | CCOC(=O)c1cnc2ccc(OC(F)(F)F)cc2c1Nc1ccccc1C(=O)O [Entry 1, 2-[[3-ethoxycarbonyl-6-(trifluoromethoxy)quinolin-4-yl]amino]benzoic acid] | – | – | restoration of TERC 3′ end processing / maturation (in words) [1]: restoration of TERC maturation that is similar to that achieved by PAPD5 knockdown
2 | N#C/C(=C\c1ccc(-c2ccc(Cl)c(C(=O)O)c2)o1)c1nc2ccccc2[nH]1 [Entry 245, 5-[5-[(E)-2-(1H-benzimidazol-2-yl)-2-cyanoethenyl]furan-2-yl]-2-chlorobenzoic acid] | – | – | Fold-change determined at compound concentration 33 μM (PAPD5 [2]; Table 4 (entries of Table 5), 33 μM compound, ratio of luminescence with inhibitor to DMSO): 1.236; Fold-change determined at compound concentration 100 μM (PAPD5 [2]; Table 4 (entries of Table 5), 100 μM compound, ratio of luminescence with inhibitor to DMSO, higher = higher inhibition): 1.638
3 | C=CCNC(=O)c1sc(=S)n2c1[nH]c(=O)c1cc3c(cc12)OCO3 [N-allyl-5-oxo-1-thioxo-4,5-dihydro[1,3]dioxolo[4,5-g][1,3]thiazolo[3,4-a]quinazoline-3-carboxamide] | – | – | fold change at 100 μM concentration in the assay (PAPD5 [2]; 100 μM compound): 3.1

Further lines, with some results ahead:

Row | inhibition of PARN exonuclease (in words) (PARN exonuclease) | inhibition of PAPD5 (in words) (PAPD5 [3]) | SMILES | other results
4 | do not inhibit PARN | inhibit PAPD5 | CCOC(=O)c1cnc2ccc(OC(F)(F)F)cc2c1Nc1ccccc1C(=O)O [entry 1 in Table 5, 2-[[3-ethoxycarbonyl-6-(trifluoromethoxy)quinolin-4-yl]amino]benzoic acid] | –
5 | do not inhibit PARN | inhibit PAPD5 | CCc1ccc2ncc(C(=O)c3ccc(C)c(C)c3)c(N3CCC(C(N)=O)CC3)c2c1 [entry 2 in Table 5, 1-[3-(3,4-dimethylbenzoyl)-6-ethylquinolin-4-yl]piperidine-4-carboxamide] | –
